Measurements as given in ChEMBL document CHEMBL1275576, “In vitro activity of tomopenem (CS-023/RO4908463) against anaerobic bacteria” (Antimicrob Agents Chemother, 2009).

Legend:
Format in all cases: functional
[1] = tested on: Peptoniphilus asaccharolyticus; assay: Antimicrobial activity against Peptoniphilus asaccharolyticus WAL 3218 by agar dilution method in presence of 5% laked sheep blood
Bacteroides fragilis [2] = assay: Antimicrobial activity against Bacteroides fragilis GAI 10150 by agar dilution method in presence of 5% laked sheep blood
[3] = tested on: Limosilactobacillus reuteri; assay: Antimicrobial activity against Lactobacillus reuteri JCM 1112 by agar dilution method in presence of 5% laked sheep blood
Bifidobacterium bifidum = assay: Antimicrobial activity against Bifidobacterium bifidum JCM 1255 by agar dilution method in presence of 5% laked sheep blood
Prevotella buccae = assay: Antimicrobial activity against Prevotella buccae ATCC 33574 by agar dilution method in presence of 5% laked sheep blood; conditions: Segatella buccae
Gemella morbillorum = assay: Antimicrobial activity against Gemella morbillorum ATCC 27824 by agar dilution method in presence of 5% laked sheep blood
Porphyromonas gingivalis = assay: Antimicrobial activity against Porphyromonas gingivalis ATCC 33277 by agar dilution method in presence of 5% laked sheep blood
Capnocytophaga ochracea = assay: Antimicrobial activity against Capnocytophaga ochracea GAI 5586 by agar dilution method in presence of 5% laked sheep blood
Campylobacter gracilis = assay: Antimicrobial activity against Campylobacter gracilis JCM 8538 by agar dilution method in presence of 5% laked sheep blood
[4] = Antimicrobial activity against Veillonella dispar ATCC 17748 by agar dilution method in presence of 5% laked sheep blood
[5] = tested on: Streptococcus intermedius; assay: Antimicrobial activity against Streptococcus intermedius ATCC 27335 by agar dilution method in presence of 5% laked sheep blood
Bacteroides fragilis [6] = assay: Antimicrobial activity against Bacteroides fragilis GAI 0558 by agar dilution method in presence of 5% laked sheep blood
Eggerthella lenta = assay: Antimicrobial activity against Eggerthella lenta ATCC 25559 by agar dilution method in presence of 5% laked sheep blood
Parvimonas micra = assay: Antimicrobial activity against Parvimonas micra VPI 5464-1 by agar dilution method in presence of 5% laked sheep blood
Bacteroides uniformis = assay: Antimicrobial activity against Bacteroides uniformis ATCC 8492 by agar dilution method in presence of 5% laked sheep blood
Peptoniphilus indolicus = assay: Antimicrobial activity against Peptoniphilus indolicus GAI 0915 by agar dilution method in presence of 5% laked sheep blood
[7] = tested on: Bacteroides thetaiotaomicron; assay: Antimicrobial activity against Bacteroides thetaiotaomicron ATCC 29741 by agar dilution method in presence of 5% laked sheep blood
Bifidobacterium breve = assay: Antimicrobial activity against Bifidobacterium breve ATCC 15700 by agar dilution method in presence of 5% laked sheep blood
Lactobacillus salivarius = assay: Antimicrobial activity against Lactobacillus salivarius subsp. salivarius JCM 1231 by agar dilution method in presence of 5% laked sheep blood; conditions: Ligilactobacillus salivarius
[8] = Antimicrobial activity against Bifidobacterium adolescentis ATCC 15703 by agar dilution method in presence of 5% laked sheep blood
Bacteroides fragilis [9] = assay: Antimicrobial activity against Bacteroides fragilis GAI 5562 by agar dilution method in presence of 5% laked sheep blood
[10] = tested on: Fusobacterium necrophorum; assay: Antimicrobial activity against Fusobacterium necrophorum ATCC 25286 by agar dilution method in presence of 5% laked sheep blood
[11] = tested on: Bifidobacterium pseudolongum; assay: Antimicrobial activity against Bifidobacterium pseudolongum ATCC 25526 by agar dilution method in presence of 5% laked sheep blood
Anaerococcus prevotii = assay: Antimicrobial activity against Anaerococcus prevotii ATCC 9321 by agar dilution method in presence of 5% laked sheep blood
Phocaeicola vulgatus = assay: Antimicrobial activity against Bacteroides vulgatus GAI 0673 by agar dilution method in presence of 5% laked sheep blood
[12] = Antimicrobial activity against Bifidobacterium longum subsp. longum ATCC 15707 by agar dilution method in presence of 5% laked sheep blood
Clostridioides difficile = assay: Antimicrobial activity against Clostridium difficile GAI 10029 by agar dilution method in presence of 5% laked sheep blood
[13] = tested on: Porphyromonas asaccharolytica; assay: Antimicrobial activity against Porphyromonas asaccharolyticus ATCC 25260 by agar dilution method in presence of 5% laked sheep blood; conditions: DSM 20707
Bacteroides fragilis [14] = assay: Antimicrobial activity against carbapenemase-producing Bacteroides fragilis GAI 30079 by agar dilution method in presence of 5% laked sheep blood
[15] = tested on: Streptococcus constellatus; assay: Antimicrobial activity against Streptococcus constellatus ATCC 27923 by agar dilution method in presence of 5% laked sheep blood
[16] = tested on: Bacteroides eggerthii DSM 20697; assay: Antimicrobial activity against Bacteroides eggerthii ATCC 27754 by agar dilution method in presence of 5% laked sheep blood
[17] = tested on: Limosilactobacillus fermentum; assay: Antimicrobial activity against Lactobacillus fermentum JCM 1173 by agar dilution method in presence of 5% laked sheep blood
[18] = tested on: Enterocloster clostridioformis; assay: Antimicrobial activity against Clostridium clostridioforme NCTC 11224 by agar dilution method in presence of 5% laked sheep blood
Atopobium parvulum = assay: Antimicrobial activity against Atopobium parvulum VPI 0546 by agar dilution method in presence of 5% laked sheep blood; conditions: Lancefieldella parvula
[19] = tested on: Sutterella wadsworthensis; assay: Antimicrobial activity against Sutterella wadsworthensis ATCC 51579 by agar dilution method in presence of 5% laked sheep blood
Prevotella bivia = assay: Antimicrobial activity against Prevotella bivia ATCC 29303 by agar dilution method in presence of 5% laked sheep blood; conditions: DSM 20514
[20] = tested on: Staphylococcus saccharolyticus; assay: Antimicrobial activity against Staphylococcus saccharolyticus ATCC 14953 by agar dilution method in presence of 5% laked sheep blood
Veillonella parvula = assay: Antimicrobial activity against Veillonella parvula ATCC 10790 by agar dilution method in presence of 5% laked sheep blood
Thomasclavelia ramosa = assay: Antimicrobial activity against Clostridium ramosum ATCC 25582 by agar dilution method in presence of 5% laked sheep blood
Bacteroides ovatus = assay: Antimicrobial activity against Bacteroides ovatus ATCC 8483 by agar dilution method in presence of 5% laked sheep blood
[21] = tested on: Lactiplantibacillus plantarum; assay: Antimicrobial activity against Lactobacillus plantarum JCM 1149 by agar dilution method in presence of 5% laked sheep blood
Schaalia odontolytica = assay: Antimicrobial activity against Actinomyces odontolyticus GAI 91002 by agar dilution method in presence of 5% laked sheep blood
Lactobacillus brevis = assay: Antimicrobial activity against Lactobacillus brevis subsp. brevis JCM 1059 by agar dilution method in presence of 5% laked sheep blood; conditions: Levilactobacillus brevis
[22] = Antimicrobial activity against Finegoldia magna ATCC 29328 by agar dilution method in presence of 5% laked sheep blood
Prevotella oris = assay: Antimicrobial activity against Prevotella oris ATCC 33573 by agar dilution method in presence of 5% laked sheep blood; conditions: Segatella oris
[23] = tested on: Paeniclostridium sordellii; assay: Antimicrobial activity against Clostridium sordellii ATCC 9714 by agar dilution method in presence of 5% laked sheep blood; conditions: Paraclostridium sordellii

SMILES: C[C@@H](O)[C@H]1C(=O)N2C(C(=O)O)=C(S[C@@H]3CN[C@H](C(=O)N(C)C)C3)[C@H](C)[C@H]12 [MEROPENEM]
- MIC [1]: ≤ 0.015 µg/mL
- MIC (Bacteroides fragilis [2]): 2 µg/mL
- MIC [3]: 0.5 µg/mL
- MIC (Bifidobacterium bifidum): 0.06 µg/mL
- MIC (Prevotella buccae): 0.25 µg/mL
- MIC (Gemella morbillorum): ≤ 0.015 µg/mL
- MIC (Porphyromonas gingivalis): ≤ 0.015 µg/mL
- MIC (Capnocytophaga ochracea): 0.03 µg/mL
- MIC (Campylobacter gracilis): 0.06 µg/mL
- MIC [4]: 0.03 µg/mL
- MIC [5]: 0.25 µg/mL
- MIC (Bacteroides fragilis [6]): 0.05 µg/mL
- MIC (Eggerthella lenta): 1 µg/mL
- MIC (Parvimonas micra): 0.125 µg/mL
- MIC (Bacteroides uniformis): 0.125 µg/mL
- MIC (Peptoniphilus indolicus): ≤ 0.015 µg/mL
- MIC [7]: 0.25 µg/mL
- MIC (Bifidobacterium breve): 1 µg/mL
- MIC (Lactobacillus salivarius): 1 µg/mL
- MIC [8]: 0.125 µg/mL
- MIC (Bacteroides fragilis [9]): 0.125 µg/mL
- MIC [10]: ≤ 0.015 µg/mL
- MIC [11]: 0.25 µg/mL
- MIC (Anaerococcus prevotii): 0.25 µg/mL
- MIC (Phocaeicola vulgatus): 0.125 µg/mL
- MIC [12]: 0.5 µg/mL
- MIC (Clostridioides difficile): 4 µg/mL
- MIC [13]: ≤ 0.015 µg/mL
- MIC (Bacteroides fragilis [14]): > 128 µg/mL
- MIC [15]: 0.05 µg/mL
- MIC [16]: 0.125 µg/mL
- MIC [17]: 0.25 µg/mL
- MIC [18]: 0.25 µg/mL
- MIC (Atopobium parvulum): 0.5 µg/mL
- MIC [19]: 0.06 µg/mL
- MIC (Prevotella bivia): 0.25 µg/mL
- MIC [20]: 0.125 µg/mL
- MIC (Veillonella parvula): 0.03 µg/mL
- MIC (Thomasclavelia ramosa): 1 µg/mL
- MIC (Bacteroides ovatus): 0.25 µg/mL
- MIC [21]: 0.25 µg/mL
- MIC (Schaalia odontolytica): 0.5 µg/mL
- MIC (Lactobacillus brevis): 0.5 µg/mL
- MIC [22]: 0.125 µg/mL
- MIC (Prevotella oris): 0.06 µg/mL
- MIC [23]: 0.03 µg/mL

SMILES: C[C@@H](O)[C@H]1C(=O)N2C(C(=O)O)=C(S[C@H]3C[C@@H](C(=O)N4CC[C@H](NC(=O)CNC(=N)N)C4)N(C)C3)[C@H](C)[C@H]12 [TOMOPENEM]
- MIC [1]: 0.03 µg/mL
- MIC (Bacteroides fragilis [2]): 4 µg/mL
- MIC [3]: 0.125 µg/mL
- MIC (Bifidobacterium bifidum): 0.06 µg/mL
- MIC (Prevotella buccae): 0.25 µg/mL
- MIC (Gemella morbillorum): 0.03 µg/mL
- MIC (Porphyromonas gingivalis): 0.03 µg/mL
- MIC (Capnocytophaga ochracea): 0.06 µg/mL
- MIC (Campylobacter gracilis): 0.06 µg/mL
- MIC [4]: 0.03 µg/mL
- MIC [5]: 0.125 µg/mL
- MIC (Bacteroides fragilis [6]): 1 µg/mL
- MIC (Eggerthella lenta): 0.5 µg/mL
- MIC (Parvimonas micra): 0.125 µg/mL
- MIC (Bacteroides uniformis): 0.25 µg/mL
- MIC (Peptoniphilus indolicus): ≤ 0.015 µg/mL
- MIC [7]: 0.5 µg/mL
- MIC (Bifidobacterium breve): 1 µg/mL
- MIC (Lactobacillus salivarius): 0.5 µg/mL
- MIC [8]: 0.125 µg/mL
- MIC (Bacteroides fragilis [9]): 0.25 µg/mL
- MIC [10]: ≤ 0.015 µg/mL
- MIC [11]: 0.125 µg/mL
- MIC (Anaerococcus prevotii): 0.125 µg/mL
- MIC (Phocaeicola vulgatus): 0.25 µg/mL
- MIC [12]: 0.5 µg/mL
- MIC (Clostridioides difficile): 2 µg/mL
- MIC [13]: ≤ 0.015 µg/mL
- MIC (Bacteroides fragilis [14]): > 128 µg/mL
- MIC [15]: 0.25 µg/mL
- MIC [16]: 0.125 µg/mL
- MIC [17]: 0.125 µg/mL
- MIC [18]: 0.03 µg/mL
- MIC (Atopobium parvulum): 0.5 µg/mL
- MIC [19]: 0.5 µg/mL
- MIC (Prevotella bivia): 0.5 µg/mL
- MIC [20]: 0.06 µg/mL
- MIC (Veillonella parvula): 0.03 µg/mL
- MIC (Thomasclavelia ramosa): 0.5 µg/mL
- MIC (Bacteroides ovatus): 0.5 µg/mL
- MIC [21]: 0.06 µg/mL
- MIC (Schaalia odontolytica): 0.5 µg/mL
- MIC (Lactobacillus brevis): 0.25 µg/mL
- MIC [22]: 0.125 µg/mL
- MIC (Prevotella oris): 0.125 µg/mL
- MIC [23]: ≤ 0.015 µg/mL

SMILES: Cc1ncc([N+](=O)[O-])n1CCO [METRONIDAZOLE]
- MIC [1]: 1 µg/mL
- MIC (Bacteroides fragilis [2]): 1 µg/mL
- MIC [3]: > 128 µg/mL
- MIC (Bifidobacterium bifidum): 4 µg/mL
- MIC (Prevotella buccae): 0.5 µg/mL
- MIC (Gemella morbillorum): > 128 µg/mL
- MIC (Porphyromonas gingivalis): 0.03 µg/mL
- MIC (Capnocytophaga ochracea): 1 µg/mL
- MIC (Campylobacter gracilis): 0.5 µg/mL
- MIC [4]: 2 µg/mL
- MIC [5]: > 128 µg/mL
- MIC (Bacteroides fragilis [6]): 0.5 µg/mL
- MIC (Eggerthella lenta): 0.5 µg/mL
- MIC (Parvimonas micra): 1 µg/mL
- MIC (Bacteroides uniformis): 0.5 µg/mL
- MIC (Peptoniphilus indolicus): 0.5 µg/mL
- MIC [7]: 1 µg/mL
- MIC (Bifidobacterium breve): 16 µg/mL
- MIC (Lactobacillus salivarius): > 128 µg/mL
- MIC [8]: 64 µg/mL
- MIC (Bacteroides fragilis [9]): 1 µg/mL
- MIC [10]: 0.125 µg/mL
- MIC [11]: > 128 µg/mL
- MIC (Anaerococcus prevotii): 2 µg/mL
- MIC (Phocaeicola vulgatus): 0.25 µg/mL
- MIC [12]: 8 µg/mL
- MIC (Clostridioides difficile): 0.5 µg/mL
- MIC [13]: 0.25 µg/mL
- MIC (Bacteroides fragilis [14]): 1 µg/mL
- MIC [15]: > 128 µg/mL
- MIC [16]: 0.5 µg/mL
- MIC [17]: > 128 µg/mL
- MIC [18]: ≤ 0.015 µg/mL
- MIC (Atopobium parvulum): 0.5 µg/mL
- MIC [19]: 1 µg/mL
- MIC (Prevotella bivia): 2 µg/mL
- MIC [20]: > 128 µg/mL
- MIC (Veillonella parvula): 2 µg/mL
- MIC (Thomasclavelia ramosa): 2 µg/mL
- MIC (Bacteroides ovatus): 2 µg/mL
- MIC [21]: > 128 µg/mL
- MIC (Schaalia odontolytica): 16 µg/mL
- MIC (Lactobacillus brevis): > 128 µg/mL
- MIC [22]: 1 µg/mL
- MIC (Prevotella oris): 0.25 µg/mL
- MIC [23]: 1 µg/mL
